Source: publication PMC4985754, “Folding analysis of the most complex Stevedore’s protein knot” (Scientific Reports, 2016)

Experiments:
DehI = target: T1, DehI (Pseudomonas putida, UniProt Q8GJ84); experiment: colorimetric phenol red dehalogenase assay, absorbance at […] nm; assay type: biochemical; conditions: 10 mM substrate, 10 uM enzyme, 50 mM HEPES pH 8.2, 20 mM Na2SO4, 1 mM EDTA, room temperature overnight
T1 construct: domains 1-130 and 166-296, linker 131-165
T1 sequence (Q8GJ84 1-296): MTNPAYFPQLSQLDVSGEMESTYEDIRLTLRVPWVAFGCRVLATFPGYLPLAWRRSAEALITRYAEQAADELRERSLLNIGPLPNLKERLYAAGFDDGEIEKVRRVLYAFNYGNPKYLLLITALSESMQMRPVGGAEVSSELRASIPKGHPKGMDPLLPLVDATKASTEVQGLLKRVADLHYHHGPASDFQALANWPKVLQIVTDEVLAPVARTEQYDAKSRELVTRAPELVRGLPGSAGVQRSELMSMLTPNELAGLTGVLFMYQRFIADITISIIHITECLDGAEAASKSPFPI

[1] = target: the molecule itself; experiment: SEC-MALS; DehI in solution, mono-dispersed major elution peak; buffer A (20 mM potassium phosphate pH 8, 300 mM NaCl) unless stated otherwise; observed MW compared with the theoretical MW of the homodimer

Molecule	colorimetric phenol red dehalogenase assay, absorbance at 559 nm (DehI)	stoichiometry N [1]
CC(Cl)C(=O)O (centres unmarked) [2-chloropropionic acid]	2-chloropropionic acid was used as the substrate of DehI	
DehI, α-haloacid dehalogenase from Pseudomonas putida strain PP3 (enzyme, DehI, α-haloacid dehalogenase, Pseudomonas putida strain PP3; No tag cleavage is described; The theoretical MW of the homodimer is printed as 69.9 kDa, which may include the tag (surmise); also called wt; source: E. coli BL21 (DE3), purified (HisTrap HP, Superdex 200 SEC)) MTNPAYFPQLSQLDVSGEMESTYEDIRLTLRVPWVAFGCRVLATFPGYLPLAWRRSAEALITRYAEQAADELRERSLLNIGPLPNLKERLYAAGFDDGEIEKVRRVLYAFNYGNPKYLLLITALSESMQMRPVGGAEVSSELRASIPKGHPKGMDPLLPLVDATKASTEVQGLLKRVADLHYHHGPASDFQALANWPKVLQIVTDEVLAPVARTEQYDAKSRELVTRAPELVRGLPGSAGVQRSELMSMLTPNELAGLTGVLFMYQRFIADITISIIHITECLDGAEAASKSPFPI		2
